{"source": "patent EP0470323A2", "about": "“New salts of the nicotinic acid with aminobenzylic compounds and their pharmaceutical use” (BROMLEY LIMITED, priority 1990, dated 1992)", "key": {"[1]": {"test_system": "Central artery of a rabbit's ear", "assay": "In vitro antispastic action, adrenalin-induced spasm of the perfused isolated artery", "settings": "spasm induced by Adrenalin, n=4", "experimental": "An \"in vitro\" method has been used, according to which the withdrawal of the central artery of a rabbit's ear with the relevant nervous connections and the equipment of an appropriate seat for secluded organs was designed (Fleckenstein A., British Journal of Pharmacology 7, 533, 1952).\nOn the artery they did install a three-ways tube, connected with a peristaltic pump and with a mercury manometer to record the perfusion pressure. The artery was perfused with a rebs liquid at the speed of 2,5 ml/minute. The contractions were induced by injecting into the vessel 0,1 ml adrenalin at the concentration of 1 mcg/ml. The compound according to the example 1 has been added to the bath at concentrations of 0,5 - 1 - 2 uM, five minutes before the adrenalin (four preparations per concentration). As comparison drugs, chlorhydra ted Buflomedil and Papaverin have been used. The activity of the material under investigation has been appreciated in terms of percentages referring to the concentration induced by the Adrenalin (and expressed with DE₅₀) and the relevant forbidding."}, "red cells in the rat [2]": {"test_system": "red cells in the rat", "assay": "Red cell adhesivity / filtration, Teitel method", "assay_type": "in vivo", "description": "(§1) steresis (Teiltel P.: Nouv. Rev. Franç. Hématol. 7, 195, 1967). Any alteration, almost undoubtely at the level of the red cell's membrane, cause some damaging variations of the red cell's elasticity thus making more difficult the passing through the capillary vessels having more reduced diameter, and therefore increasing the flow resistance in the peripheral vessels systems. In order to determine the effect caused by the compound according to the Example 1, on these features of the red cell, the method described by Schmidt, Schonbein and colleagues (Blut 26, 369, 1973) has been used.\n(§2) In the circulatory flow, the above mentioned capillary vessels being excluded, the blood cells do normally circulate being attached between each other because of their adhesiveness. In order to study this adhesion force, the above mentioned Teitel method has been used. Male rats of 150 g body weight approximately have been employed, and they have been treated for three consecutive days with 0,5 mM/kg/os of the compound according to the Example 1, or otherwise Buflomedil, or even Pentosiphillin used as comparison substance. After the last treatment the animals, without eating from 18 hours, have been killed in a light ethereal anaesthesy and the blood was collected over an 0,2 molar EDTA (9 and 1 volumes respectively). The red cells filtering possibility, measured with the Teitel method, wherein the quantity of red cells passing, in high haematocritical conditions, through a paper filter with holes of 20-40 µm in a previously determined time, has been ascertained as follows: the blood was centrifuged for ten minutes at 2000 rpm in order to obtain the massing of the red cells, two ml of the blood collected as above were put into an upside down turned cone made with filtering paper, being previously wetted with a physiological solution. The volume passing through the filter in 2 - 4 - 8 and 16 minutes is then measured. The average filtration time T 1/2 is reckoned on semi-logarithmic paper by putting on the abscissae the logarithm of the time, and on the ordinates the percentage of blood filtered. In order to follow the Schmidt Schönbein method, the here after described proceeding has been performed: 0,2 ml of a suspension of red cells at 2% obtained by diluting the blood with the autological plasma, then it was placed into an appropriate device permitting to filter this blood through a filter (millipores) of 5 µm mashes at a filtration pressure of 50 mm water. With a chronometer one determines the time required for the passage of the whole sample through the filter.\nAt time same time, one measures, in the same conditions, the same parameter for a plasma sample. One calculates then the relative filtration time by dividing the time required to filter the diluted blood sample by the time being necessary to filter the plasma sample. For each group the average and the standard error of the individual data obtained was reckoned. The statistical evaluation was obtained by means of the Dunnett test."}, "[3]": {"test_system": "aggregation of the platelets caused by the collagene", "assay": "Anti-aggregating ex vivo activity against collagen in the rat", "experimental": "Six groups of 15 male rats of 200 - 250 g have been used.\nThe blood taken from the three rats of each group has been mixed and centrifuged during 6 minutes at 1400 rpm, at room temperature. After having taken the plasma full of platelets (PRP) the thereunder floating material has been centrifuged again (4000 rpm during 10 minutes) in order to have the plasma with few platelets (PPP) separated from the balance. The PRP has been diluted with a part of PPP in order to bring the number of platelets to 350 ± 50 x 10³/mm³. The aggregation has been evaluated in accordance with the method of Minsker D.H. and coll. (J. Pharmacol.Exp.Ther. 210 37 1979) by using an ELVI 840 two-channels aggregometer and an Omniscribe recorder B.500. A quantity of 0,25 ml PRP has been used, transferred into the aggregometer for two minutes at 37°C and stirred at 1000 rpm. The light intensity was arranged in such a way, to obtain 0% transmittance with the PRP and 100% with the PPP. After 2′ incubation, by means of microsyringe the collagene was added to the PRP in a volume quantity of 5 mcl with the final concentration of 4 mcg/ml.\nFrom the aggregation trace of the recorder the following data have been evaluated: • a) latent time of the aggregation (seconds between the introductions of collagene and the starting of the aggregation) • b) transmittance increase percentage (maximum aggregation). The same proceeding was repeated for all animals, always by mixing the blood of three rats belonging to the same group and by obtaining in this manner five aggregation curves per group."}, "red cells in the rat [4]": {"test_system": "red cells in the rat", "assay": "Red cell deformability / filtration, Schmidt-Schönbein method", "assay_type": "in vivo", "settings": "dose 3 x 0,5 mM/kg/os", "description": "as §1\nas §2, with “The average filtration time T 1/2 is reckoned on semi-logarithmic paper by putting on the abscissae the logarithm of the time, and on the ordinates the percentage of blood filtered. In order to follow the Schmidt Schönbein method, the here after described proceeding has been performed: 0,2 ml of a suspension of red cells at 2% obtained by diluting the blood with the autological plasma, then it was placed into an appropriate device permitting to filter this blood through a filter (millipores) of 5 µm mashes at a filtration pressure of 50 mm water. With a chronometer one determines the time required for the passage of the whole sample through the filter.” left out"}, "[5]": {"test_system": "skin temperature of the mouse's paw", "assay": "Peripheral vessel-dilating activity in the mouse (skin temperature of hind paws)", "assay_type": "in vivo", "settings": "listed as buflomedil HCl; for Temperature (°C) of the hind paws (n=10): intravenous, dose 0,030 mM/kg/iv; for Temperature (°C) of the hind paws: oral, dose 0,500 mM/kg/os", "experimental": "The method of Richter W. (Acta Pharm. Toxicol. 21, 91; 1974) was used; it consists in determining, at fixed time intervals after the treatment, the skin temperature of the mouse's paw, by keeping the animals in rooms at a constant temperature of 21°C.\nSome groups of ten male mouses each have been used; the weight of each animal was 30 g approximately.\nThe compound according to the Example 1 has been tested \"per os\" at three basic levels of the doses (0,125 - 0,25 - 0,5 mM/kg) and by intravenous injection at two dose levels (0,015 and 0,03 mM/kg), in comparison with one sole dose of Papaverin and chlorhydrated Buflomedil (0,5 mM/kg \"per os\" and 0,03m M/kg intravenous). The observation of the skin temperature at the mouse's paw was made before the treatment, 30, 60 and 120 minutes after the \"per os\" treatment, […] (A-Hl Ellab) connected with an Ellab electric recorder. Of each animal the temperature of both hind paws has been measured, and the values obtained have been averaged ."}, "[6]": {"settings": "rat, 1,00 mM/kg os for 4 days, PRP 2 hours after last treatment, collagene 4 mcg/ml, listed as Chlorhydrated Buflo-medil"}, "[7]": {"settings": "rat, 1,00 mM/kg os for 4 days, listed as Chlorhydrated Buflo-medil"}, "[8]": {"settings": "0 minutes (before the treatment)"}}}
{"smiles": "COc1cc(OC)c(C(=O)CCCN2CCCC2)c(OC)c1", "note": "[Buflomedil, reference compound]", "values": [{"measurement": "EC50", "setting": "[1]; Oryctolagus cuniculus, read-out: DE50 (the source's name)", "value": 670, "unit": "nM"}, {"measurement": "% inhibi-tions of the con-tractions", "setting": "[1]; concentration 0,5 μ M", "value": 41, "unit": "%"}, {"measurement": "% inhibi-tions of the con-tractions", "setting": "[1]; concentration 1,0 μ M", "value": 60, "unit": "%"}, {"measurement": "% inhibi-tions of the con-tractions", "setting": "[1]; concentration 2,0 μ M", "value": 87, "unit": "%"}, {"measurement": "Teitel method Δ % vs contr.", "setting": "red cells in the rat [2]; dose 3 x 0,5 mM/kg/os", "value": "20,3%"}, {"measurement": "Teitel method T1/2 min. M ± E.S.", "setting": "red cells in the rat [2]; dose 3 x 0,5 mM/kg/os (three consecutive days)", "value": "2,90 ± 0,28 min."}, {"measurement": "effect relative to that caused by the same dose of the compound according to the example 1", "setting": "[3]; rat, 1 mM/kg os, platelet aggregation by collagene", "value": "approximately 50%"}, {"measurement": "Latency time (sec.)", "setting": "[3]; [6]", "value": "51,9 ± 3,7 sec."}, {"measurement": "Transmittance percentage (maximum aggregation)", "setting": "[3]; [6]", "value": "54,2 ± 4,5%"}, {"measurement": "Latency time, % variation vs controls", "setting": "[3]; [7]", "value": "+38,4%"}, {"measurement": "Transmittance percentage, % variation vs controls", "setting": "[3]; [7]", "value": -31, "unit": "%"}, {"measurement": "Schmidt-Schönbein method Δ % vs contr.", "setting": "red cells in the rat [4]", "value": "24,2%"}, {"measurement": "Temperature (°C) of the hind paws (n=10)", "setting": "[5]; [8]", "value": "24,3 ± 0,32 °C"}, {"measurement": "Temperature (°C) of the hind paws (n=10)", "setting": "[5]; 30 minutes from the treatment", "value": "26,6 ± 0,20 °C"}, {"measurement": "Temperature (°C) of the hind paws (n=10)", "setting": "[5]; 60 minutes from the treatment", "value": "26,3 ± 0,24 °C"}, {"measurement": "Temperature (°C) of the hind paws (n=10)", "setting": "[5]; 120 minutes from the treatment", "value": "26,0 ± 0,18 °C"}, {"measurement": "Temperature (°C) of the hind paws", "setting": "[5]; [8]", "value": "24,2 ± 0,30 °C"}, {"measurement": "Temperature (°C) of the hind paws", "setting": "[5]; 30 minutes from the treatment", "value": "25,8 ± 0,25 °C"}, {"measurement": "Temperature (°C) of the hind paws", "setting": "[5]; 60 minutes from the treatment", "value": "26,5 ± 0,50 °C"}, {"measurement": "Temperature (°C) of the hind paws", "setting": "[5]; 120 minutes from the treatment", "value": "26,1 ± 0,42 °C"}]}
